Assay results published in US11179409B2, “Cucurbitane tetracyclic triterpenoid compounds for application in treating pulmonary fibrosis” (CHENGDU BIOPURIFY LTD., priority 2015, dated 2021).

Experiments:
[1] = tested on: bleomycin-induced pulmonary fibrosis model mice; assay: Bleomycin-induced mice pulmonary fibrosis model (tracheal bleomycin, stomach perfusion of drug); type: in vivo; settings: for Body weights compared with model group / Lung coefficients (lung weight mg/body weight g) compared with model group: high-dose and low-dose mogroside IIIe groups, prednisone acetate 6.67 mg/kg/d, P<0.01; for Body weights compared with model group: after 14 and 28 days of administration, FIG. 1; for Lung coefficients (lung weight mg/body weight g) compared with model group: after administration for 14 days and 28 days, FIG. 2; for Lung tissue fibrosis degree (Masson staining) compared with model group: lung section on day 28, FIG. 3
Text: The above mogroside IIIe is selected to be subjected to in-vivo pharmacodynamical research. Injection of a bleomycin-induced mice pulmonary fibrosis model is a commonly used method in the world, and such model is similar to a human pulmonary interstitial fibrosis model.
100 male ICR mice with a body weight of 25-30 g are provided by Comparative Medicine Center of Yangzhou University.
20 mice are used as a blank control group (control group in FIG. 1), and the other 80 mice are used for modeling. All the above mice are anesthetized by virtue of intraperitoneal injection of 4% chloral hydrate, with injection volume of 10 ml/kg. After anesthesia, each mouse is fixed and the neck of the mouse is disinfected; the skin of its neck is cut longitudinally with scissors to expose the trachea; the syringe is inserted into the trachea. The mice in the blank control group are injected with normal saline, and the remaining mice are injected with bleomycin (5 mg/kg); then the mouse plate is quickly erected and rotated, and the wound of each mouse is sutured after observing the breathing condition of the mouse, and 1-2 drops of penicillin injection are dropped at the suture. The postoperative mouse is placed back in a dry and clean mouse cage for rest, and then is normally fed after it revives approximately 1-2 h later.
Starting from the day 7 after modeling, the other 80 mice are randomly divided into a model group, a positive drug (prednisone acetate) group, a high-dose mogroside IIIe (50 mg/kg, mogroside IIIe-H) group, a low-dose mogroside IIIe group (10 mg/kg, mogroside IIIe-L), 20 mice in each group.
The mice in the blank control group and the model group are subjected to stomach perfusion with normal saline every day, the mice in the positive drug group are subjected to stomach perfusion with 6.67 mg/kg/d prednisone acetate, the mice in the high-dose/low-dose mogroside IIIe groups are subjected to stomach perfusion with 50 mg/kg/d and 10 mg/kg/d respectively for continuous 28 days, and are killed on the day 14 and the day 28. The each mouse is recorded in body weight, the lung tissue is taken out via dissection, cleaned with ice normal saline, sucked dry with absorbent paper and weighed, and then a lung coefficient is calculated, i.e., lung coefficient=lung weight (mg)/body weight (g). The left lung is put into 4% neutral formaldehyde for fixation, gradually dehydrated with alcohol, transparentized with xylene, immersed in wax, embedded in paraffin, then routinely sectioned and subjected to Masson staining, so that the lung tissue morphology, lung injury condition and pulmonary fibrosis degree are observed. Other lung lobes are individually stored for determination of HYP content.
All data are expressed as mean±SD(x±s). SPSS 11.5 statistical software is used for processing. Statistical analysis is performed using one-way ANOVA. P<0.05 represents this group has statistical significance.
For mice lung tissue injury caused by bleomycin, the number of leukocytes is increased, especially neutrophil infiltration causes alveolar inflammation, and inflammatory cells release inflammatory mediators NO, TNF-α and various cytokines, thereby on one hand, aggravating lung tissue injury and on the other hand promoting excessive increase of collagen through various growth factors. This experiment is performed in accordance with requirement specification of a kit. The number of leukocytes in the bronchoalveolar lavage fluid of the mice in each group is detected by a colorimetric method on the day 14 (as shown in Table 1). Neutrophils and lymphocytes are obviously accumulated in the bronchoalveolar lavage fluid of the mice on the day 14 after treatment with bleomycin (BLM).
Hydrooxyproline (HPY) is an amino acid obtained through protein hydrolysis of connective tissues, accounts for about 14% of the weight of collagen and plays a crucial role in stability of collagen. […]

[2] = tested on: TGF-β1-induced human alveoli type II epithelial cells (A549); assay: α-SMA expression (Western blot) in TGF-β1-induced A549 epithelial-mesenchymal transition; type: cell-based; settings: TGF-β1 5 ng/mL, culture 48 hours, concentration of 50 μM, FIG. 5
Text: Alveolar epithelial cells can obtain mesenchymal cell phenotypes through an epithelial cell-mesenchyme transformation (EMT) process to serve as an important source of myofibroblast and muscle fiber metrocyte. In this new mode, epithelial cell-mesenchyme transformation of pulmonary alveoli should be considered as one of key links of fibrosis. In mature cells, injury can induce transformation of epithelial cells into mesenchymal cell phenotype, thus facilitating the fibrosis of many organs. Fibroblasts and muscle fiber metrocytes differentiated from epithelial cells often change through form (for example, change from a cubical cell form to a strip form or a fusiform), obtaining of specific marker of the fibroblast or the muscle fiber metrocyte (for example, α-SMA) and loss of the epithelial character marker (for example, epithelial cell cadherin (E-cadherin and closely linked protein) are fussed together with these epithelial tissues. Through an in-vitro test, A549 cells are induced with TGF-β1 to generate epithelial cell-mesenchyme transformation (EMT), the α-SMA expression level of actin is analyzed adopting a Western blot method, and study meaning of mogroside IIIe on pathogensis of pulmonary fibrosis in a signal transduction pathway of an EMT process is discussed. […]

[3] = tested on: LPS-induced RAW264.7 cells; assay: NO level in LPS-induced RAW264.7 cells; type: cell-based, mice; settings: within a range of 10-100 μM
[4] = tested on: bleomycin-induced pulmonary fibrosis model mice; assay: Bleomycin-induced mice pulmonary fibrosis model (tracheal bleomycin, stomach perfusion of drug); type: in vivo; settings: for Lung tissue fibrosis degree (Masson staining) compared with model group: mice killed on day 28; for Lung coefficients compared with model group: day 28 after modeling, FIG. 7; for No. of neutrophils in bronchoalveolar lavage fluid / Total No. of cells in bronchoalveolar lavage fluid: n = 5
[5] = Example 1, Table 1, 50 mg/kg high-dose group, day 14, mean±SD, *P<0.05 vs model group
[6] = Example 1, on the 28 d after administration, P<0.05 or P<0.01
[7] = Example 2, mogroside IVe 50 mg/kg and 20 mg/kg, prednisone acetate 6.67 mg/kg/d, after administration for 14 days and 28 days, P<0.01, FIG. 6
[8] = Example 2, mogroside IVe 50 mg/kg and 20 mg/kg, prednisone acetate 6.67 mg/kg/d, P<0.01
[9] = Example 3, mogrol 50 mg/kg and 20 mg/kg, prednisone acetate 7.0 mg/kg/d, FIG. 9
[10] = Example 3, Table 3, 50 mg/kg high-dose group, day 14, vs model group
[11] = Example 2, Table 2, 50 mg/kg high-dose group, day 14, *P<0.05 vs model group

| SMILES | Body weights compared with model group ([1]; Example 1) | Lung coefficients (lung weight mg/body weight g) compared with model group ([1]; Example 1) | Lung tissue fibrosis degree (Masson staining) compared with model group ([1]; Example 1) | Lung tissue fibrosis degree (Masson staining) compared with model group ([4]; Example 2, FIG. 8) | Body weights compared with model group [4, 7] | Lung coefficients compared with model group [4, 8] | Body weights compared with model group [4, 9] | other results |
| --- | --- | --- | --- | --- | --- | --- | --- | --- |
| C[C@H](CC[C@@H](O[C@@H]1O[C@H](CO)[C@@H](O)[C@H](O)[C@H]1O[C@@H]1O[C@H](CO)[C@@H](O)[C@H](O)[C@H]1O)C(C)(C)O)[C@H]1CC[C@@]2(C)[C@@H]3CC=C4[C@@H](CC[C@H](O[C@@H]5O[C@H](CO)[C@@H](O)[C@H](O)[C@H]5O)C4(C)C)[C@]3(C)[C@H](O)C[C@]12C [mogroside IIIe] | obviously increased | obviously decreased | fibroblast hyperplasia degree is lower than that in the model group | – | – | – | – | Total number of cells in bronchoalveolar lavage fluid [1, 5]: 32.81 ± 18.53*; Content of TNF-α in the lung tissue compared with model group [1, 6]: significantly lower than those in the model group; α-SMA expression caused by TGF-β1 [2]: significantly inhibit; Level of NO [3]: dose dependence to inhibit the level of NO; Number of neutrophils in bronchoalveolar lavage fluid [4, 5]: 4.28 ± 4.52*; Content of HYP in lung tissue compared with model group ([4]; Example 1, 50 mg/kg, day 28, digestion method, P<0.05, FIG. 4): obviously reduce the content of HYP; Content of TGF-β1 compared with model group [4, 6]: significantly lower than those in the model group |
| CC(=O)OCC(=O)[C@@]1(O)CC[C@H]2[C@@H]3CCC4=CC(=O)C=C[C@]4(C)[C@H]3C(=O)C[C@@]21C [prednisone acetate, reference compound] | obviously increased | obviously decreased | the degree of the lesion is relieved than that in the model group | relieved | obviously increased | obviously reduced | obviously increased | – |
| C[C@H](CC[C@@H](O)C(C)(C)O)[C@H]1CC[C@@]2(C)[C@@H]3CC=C4[C@@H](CC[C@H](O)C4(C)C)[C@]3(C)[C@H](O)C[C@]12C [mogrol] | – | – | – | – | – | – | obviously increased | No. of neutrophils in bronchoalveolar lavage fluid [4, 10]: 4.16 ± 4.26 ×10^4; Total No. of cells in bronchoalveolar lavage fluid [4, 10]: 34.72 ± 17.83 ×10^4; Lung tissue fibrosis degree (Masson staining) compared with model group ([4]; Example 3, high-dose/low-dose mogrol (50, 20 mg/kg), FIG. 10): fibroblast hyperplasia degree is lower than that in the model group; Lung index compared with model group ([4]; Example 3, high-dose/low-dose mogrol groups): obviously reduce lung index |
| C[C@H](CC[C@@H](O[C@@H]1O[C@H](CO)[C@@H](O)[C@H](O)[C@H]1O[C@@H]1O[C@H](CO)[C@@H](O)[C@H](O)[C@H]1O)C(C)(C)O)[C@H]1CC[C@@]2(C)[C@H]3CC=C4[C@@H](CC[C@H](O[C@@H]5O[C@H](CO[C@@H]6O[C@H](CO)[C@@H](O)[C@H](O)[C@H]6O)[C@@H](O)[C@H](O)[C@H]5O)C4(C)C)[C@]3(C)[C@H](O)C[C@]12C [mogroside IVe] | – | – | – | fibroblast hyperplasia degree is lower than that in the model group | obviously increased | obviously reduced | – | No. of neutrophils in bronchoalveolar lavage fluid [4, 11]: 3.97 ± 3.89* ×10^4; Total No. of cells in bronchoalveolar lavage fluid [4, 11]: 30.84 ± 16.49* ×10^4 |
